Reference: PubChem BioAssay AID248 (DTP/NCI, 2004)
Several values for one entry are separate records, joined by “and”; a condition that tells them apart may be missing. Equal values may be shown once. Toxic doses and inconclusive results are not listed. Cut-off read from the data, not from the text of the source: active = T/C of 150% or more; inactive = T/C below 125%.

Test system: L1210 leukemia ip in BDF1 mice, survival T/C
Test: NCI In Vivo Anticancer Drug Screen. Data for tumor model L1210 Leukemia (intraperitoneal) in B6D2F1 (BDF1) mice
Details: endpoint: mean survival time, higher = longer survival
Summary of the method: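 Ratio derived from survival: compound-dosed mice over vehicle-dosed mice, all bearing a transplantable tumor.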

[1] = dose: 100.0 mg/kg/injection, schedule: Q01DX009 (ip), vehicle: Klucel (hydroxypropylcellulose) (HPC)
[2] = dose: 200.0 mg/kg/injection, schedule: Q01DX009 (ip), vehicle: Klucel (hydroxypropylcellulose) (HPC)
[3] = dose: 400.0 mg/kg/injection, schedule: Q01DX009 (ip), vehicle: Klucel (hydroxypropylcellulose) (HPC)
[4] = dose: 100.0 mg/kg/injection, schedule: Q01DX009 (ip), vehicle: saline with Tween-80
[5] = dose: 100.0 mg/kg/injection, schedule: Q04DX002 (ip), vehicle: saline with Tween-80
[6] = dose: 200.0 mg/kg/injection, schedule: Q01DX009 (ip), vehicle: saline with Tween-80
[7] = dose: 200.0 mg/kg/injection, schedule: Q04DX002 (ip), vehicle: saline with Tween-80
[8] = dose: 400.0 mg/kg/injection, schedule: Q04DX002 (ip), vehicle: saline with Tween-80
[9] = dose: 100.0 mg/kg/injection, schedule: Q04DX003 (ip), vehicle: saline
[10] = dose: 200.0 mg/kg/injection, schedule: Q04DX003 (ip), vehicle: saline
[11] = dose: 400.0 mg/kg/injection, schedule: Q04DX003 (ip), vehicle: saline
[12] = dose: 100.0 mg/kg/injection, schedule: Q04DX003 (ip), vehicle: saline with Tween-80
[13] = dose: 200.0 mg/kg/injection, schedule: Q04DX003 (ip), vehicle: saline with Tween-80
[14] = dose: 400.0 mg/kg/injection, schedule: Q04DX003 (ip), vehicle: saline with Tween-80
[15] = dose: 50.0 mg/kg/injection, schedule: Q01DX001 (ip), vehicle: other
[16] = dose: 100.0 mg/kg/injection, schedule: Q01DX001 (ip), vehicle: other
[17] = dose: 200.0 mg/kg/injection, schedule: Q01DX001 (ip), vehicle: other
[18] = dose: 400.0 mg/kg/injection, schedule: Q01DX001 (ip), vehicle: other
[19] = dose: 100.0 mg/kg/injection, schedule: Q01DX001 (ip), vehicle: saline
[20] = dose: 200.0 mg/kg/injection, schedule: Q01DX001 (ip), vehicle: saline
[21] = dose: 400.0 mg/kg/injection, schedule: Q01DX001 (ip), vehicle: saline

Measured: T/C

CCn1c(C)nc2cc(S(=O)(=O)C(F)(F)C(F)Cl)ccc21 (stereo unspecified)
inactive: dose: 100.0 mg/kg/injection, schedule: Q01DX001 (ip), vehicle: Klucel (hydroxypropylcellulose) (HPC) 100 % of control | [1] 94 % of control | dose: 200.0 mg/kg/injection, schedule: Q01DX001 (ip), vehicle: Klucel (hydroxypropylcellulose) (HPC) 97 % of control | [2] 101 % of control | dose: 400.0 mg/kg/injection, schedule: Q01DX001 (ip), vehicle: Klucel (hydroxypropylcellulose) (HPC) 97 % of control | [3] 106 % of control

CCc1ccc(/C(C#N)=C/c2ccc(N(C)C)cc2)cc1
inactive: dose: 25.0 mg/kg/injection, schedule: Q01DX009 (ip), vehicle: Klucel (hydroxypropylcellulose) (HPC) 100 % of control | dose: 50.0 mg/kg/injection, schedule: Q01DX009 (ip), vehicle: Klucel (hydroxypropylcellulose) (HPC) 91 % of control | [1] 96 % of control and 90 % of control

O=C(Nc1cccc(C(F)(F)F)c1)Nc1cccc2ccc(O)cc12
inactive: [1] 107 % of control | [2] 106 % of control | [3] 98 % of control

CCOc1ccc(Br)cc1/C=C1/NC(=O)NC1=O
inactive: [4] 95 % of control | [5] 102 % of control | [6] 101 % of control | [7] 97 % of control | dose: 400.0 mg/kg/injection, schedule: Q01DX009 (ip), vehicle: saline with Tween-80 98 % of control | [8] 97 % of control

C=CC1CCC2OC(=O)C(=C)C2C1 (stereo unspecified)
inactive: [9] 101 % of control | [10] 95 % of control | [11] 101 % of control

CC(=O)OCCC(CCCl)OC(C)=O (stereo unspecified)
inactive: [5] 111 % of control | [7] 104 % of control | [8] 93 % of control

O=C(O)CNCc1ccc(F)cc1
inactive: dose: 100.0 mg/kg/injection, schedule: Q01DX009 (ip), vehicle: saline 107 % of control | [9] 109 % of control | dose: 200.0 mg/kg/injection, schedule: Q01DX009 (ip), vehicle: saline 108 % of control | [10] 105 % of control | dose: 400.0 mg/kg/injection, schedule: Q01DX009 (ip), vehicle: saline 107 % of control | [11] 102 % of control

CCOC(=O)C(O)c1ccccc1 (stereo unspecified)
inactive: [12] 98 % of control | [13] 98 % of control | [14] 98 % of control

O=C(OOC(=O)c1ccccc1)c1ccccc1
inactive: [15] 96 % of control | [16] 94 % of control | [17] 102 % of control | [18] 102 % of control

CCCCC(=O)N1CCCCC1C (stereo unspecified)
inactive: dose: 50.0 mg/kg/injection, schedule: Q01DX001 (ip), vehicle: carboxymethylcellulose (CMC) 102 % of control | dose: 50.0 mg/kg/injection, schedule: Q01DX009 (ip), vehicle: carboxymethylcellulose (CMC) 94 % of control and 100 % of control | dose: 50.0 mg/kg/injection, schedule: Q04DX003 (ip), vehicle: carboxymethylcellulose (CMC) 96 % of control | dose: 100.0 mg/kg/injection, schedule: Q01DX001 (ip), vehicle: carboxymethylcellulose (CMC) 101 % of control | dose: 100.0 mg/kg/injection, schedule: Q01DX009 (ip), vehicle: carboxymethylcellulose (CMC) 97 % of control and 98 % of control | dose: 100.0 mg/kg/injection, schedule: Q04DX002 (ip), vehicle: carboxymethylcellulose (CMC) 105 % of control | dose: 100.0 mg/kg/injection, schedule: Q04DX003 (ip), vehicle: carboxymethylcellulose (CMC) 100 % of control | dose: 200.0 mg/kg/injection, schedule: Q01DX001 (ip), vehicle: carboxymethylcellulose (CMC) 101 % of control | dose: 200.0 mg/kg/injection, schedule: Q01DX009 (ip), vehicle: carboxymethylcellulose (CMC) 96 % of control and 97 % of control | dose: 200.0 mg/kg/injection, schedule: Q04DX002 (ip), vehicle: carboxymethylcellulose (CMC) 98 % of control | dose: 200.0 mg/kg/injection, schedule: Q04DX003 (ip), vehicle: carboxymethylcellulose (CMC) 105 % of control | dose: 400.0 mg/kg/injection, schedule: Q04DX002 (ip), vehicle: carboxymethylcellulose (CMC) 102 % of control

CC(=O)Nc1ccc(C(=O)C(O)c2ccc(NC(C)=O)cc2)cc1 (stereo unspecified)
inactive: [15] 100 % of control | [16] 92 % of control | [17] 105 % of control | [18] 88 % of control

CCCCCCc1cc(N=Nc2ccc(S(N)(=O)=O)cc2)c(O)cc1O
inactive: [19] 97 % of control | [20] 102 % of control | [21] 96 % of control

COC(=O)c1ccc(O)c([N+](=O)[O-])c1
inactive: dose: 50.0 mg/kg/injection, schedule: Q01DX009 (ip), vehicle: saline with Tween-80 103 % of control | [4] 94 % of control | [6] 89 % of control

Cc1cccc2c1C(=O)OC2(CC(=O)O)c1ccccc1 (stereo unspecified)
inactive: dose: 37.5 mg/kg/injection, schedule: Q04DX002 (ip), vehicle: saline with Tween-80 101 % of control | dose: 75.0 mg/kg/injection, schedule: Q04DX002 (ip), vehicle: saline with Tween-80 101 % of control | dose: 150.0 mg/kg/injection, schedule: Q04DX002 (ip), vehicle: saline with Tween-80 101 % of control

CCCOC(=O)N(CC)C(=NCC)c1ccc(NC(=O)c2ccc(C(=O)Nc3ccc(C(=NCC)N(CC)C(=O)OCCC)cc3)cc2)cc1
inactive: dose: 2.5 mg/kg/injection, schedule: Q01DX015 (ip), vehicle: methylcellulose (MC) 95 % of control | dose: 5.0 mg/kg/injection, schedule: Q01DX015 (ip), vehicle: methylcellulose (MC) 101 % of control | dose: 10.0 mg/kg/injection, schedule: Q01DX015 (ip), vehicle: methylcellulose (MC) 101 % of control | dose: 20.0 mg/kg/injection, schedule: Q01DX015 (ip), vehicle: methylcellulose (MC) 109 % of control | dose: 37.5 mg/kg/injection, schedule: Q01DX015 (ip), vehicle: methylcellulose (MC) 112 % of control | dose: 75.0 mg/kg/injection, schedule: Q01DX015 (ip), vehicle: methylcellulose (MC) 90 % of control | dose: 150.0 mg/kg/injection, schedule: Q01DX015 (ip), vehicle: methylcellulose (MC) 92 % of control | dose: 300.0 mg/kg/injection, schedule: Q01DX015 (ip), vehicle: methylcellulose (MC) 93 % of control

CC1(N)COP(=O)(NCc2ccccc2)OC1 (stereo unspecified)
inactive: [19] 95 % of control | [20] 103 % of control | [21] 103 % of control

CSc1nc2c(=O)[nH]cnc2n1C1OC(CO)C(O)C1O (stereo unspecified)
inactive: [19] 97 % of control | [20] 111 % of control | [21] 103 % of control

O=C1OC(c2cccc(Cl)c2)=N/C1=C\c1cc(Br)cc(Br)c1O
inactive: dose: 100.0 mg/kg/injection, schedule: Q04DX002 (ip), vehicle: Klucel (hydroxypropylcellulose) (HPC) 92 % of control | dose: 200.0 mg/kg/injection, schedule: Q04DX002 (ip), vehicle: Klucel (hydroxypropylcellulose) (HPC) 100 % of control | dose: 400.0 mg/kg/injection, schedule: Q04DX002 (ip), vehicle: Klucel (hydroxypropylcellulose) (HPC) 89 % of control

O=C(OCCCl)C1C2CCC(O2)C1C(=O)OCCCl (stereo unspecified)
inactive: dose: 1.56 mg/kg/injection, schedule: Q04DX002 (ip), vehicle: Klucel (hydroxypropylcellulose) (HPC) 103 % of control

CCOC(=O)Nc1cccc(Cl)c1Cl
inactive: [12] 101 % of control | [13] 98 % of control | [14] 93 % of control

CCOC(=O)c1cnc(C)nc1Nc1ccccc1I
inactive: dose: 100.0 mg/kg/injection, schedule: Q04DX003 (ip), vehicle: Klucel (hydroxypropylcellulose) (HPC) 106 % of control | dose: 200.0 mg/kg/injection, schedule: Q04DX003 (ip), vehicle: Klucel (hydroxypropylcellulose) (HPC) 97 % of control | dose: 400.0 mg/kg/injection, schedule: Q04DX003 (ip), vehicle: Klucel (hydroxypropylcellulose) (HPC) 101 % of control
